Test results: patent US5624906A, “Oral hygiene compositions comprising heteroatom containing alkyl aldonamide compounds” (Lever Brothers Company, Division of Conopco, Inc., priority 1994, dated 1997)

What was measured:
[1] = Krafft point; assay type: physicochemical; conditions: for Krafft Point (0.1%): 0.1% in water; for Krafft Point (1.0%): 1.0% in water
Protocol: The temperature at and above which surfactants begin to form micelles instead of precipitates is referred to as the Krafft point (Tk) and at this temperature the solubility of a surfactant becomes equal to its CMC (numerical value at which micelles are formed).
The Krafft point was measured by preparing 650 ml of a 0.1% or 1.0% dispersion of aldonamide in water by weight. If the surfactant was soluble at room temperature, the solution was slowly cooled to 0° C. […] (less than zero). If it precipitated out of solution, the temperature at which precipitation occurs was taken as the Krafft point.
If the surfactant was insoluble at room temperature, the dispersion was slowly heated until the solution became homogeneous. It was then slowly cooled until precipitation occurred. The temperature at which the surfactant precipitates out of solution upon cooling was taken as the Krafft point.

[2] = Ross-Miles foam height (Examples 81-84); assay type: physicochemical; conditions: for Foam Height Initial / Foam Height Final: 0.1% aldonamide, 40° C. (or 5-10° C. above Krafft point), 0 ppm hardness; for Foam Height Final: after 10 minutes; for Solubility: 0.1% in water
Protocol: In the Ross-Miles method, 200 mL of a surfactant solution contained in a pipette of specified dimensions with a 2.9-mm-i.d. orifice is allowed to fall 90 cm onto 50 mL of the same solution contained in a cylindrical vessel maintained at a given temperature by means of a water jacket. The height of the foam produced in the cylindrical vessel is read immediately after all the solution has run out of the pipette and then again after a given amount of time.
Using this method, the foam production (initial foam height in mm) and foam stability (final foam height after 10 minutes in mm) were measured at 0.1% aldonamide concentration, 40° C. and 0 ppm (parts per million) hardness.

Row | Compound | Krafft Point (0.1%) [1] | Foam Height Initial [2] | Krafft Point (1.0%) [1] | Foam Height Final [2] | Solubility [2]
1 | CCCCCCCCCCCCOC(=O)CCNC(=O)[C@H](O)[C@@H](O)[C@H](O[C@@H]1O[C@H](CO)[C@H](O)[C@H](O)[C@H]1O)[C@H](O)CO [D-Lactobionyl C12 β-Alaninate, N-D-lactobionyl dodecyl β-alaninate] |  |  | < 0 °C |  | 
2 | CCCCCCCCCCCCOC(=O)CNC(=O)[C@H](O)[C@@H](O)[C@H](O[C@@H]1O[C@H](CO)[C@H](O)[C@H](O)[C@H]1O)[C@H](O)CO [D-Lactobionyl C12 Glycinate, N-D-lactobionyl dodecyl glycinate] |  |  | < 0 °C |  | 
3 | dodecyl to pentadecyloxypropyl D-lactobionamide [C12 -C15 Oxypropyl D-Lactobionamide] |  | 166 mm | < 0 °C | 155 mm | 
4 | soyaaminopropyl D-gluconamide | < 18 °C |  |  |  | 
5 | CCCCCCCCCCCCCCNC(=O)[C@H](O)[C@@H](O)[C@H](O)[C@H](O)CO [C14 D-Gluconamide] | > 100 °C |  |  |  | Insoluble
6 | CCCCC(CC)COCCCNC(=O)[C@H](O)[C@@H](O)[C@H](O)[C@H](O)CO (stereo partly drawn) [Ethylhexyloxypropyl D-Gluconamide] | < 0 °C | 0 mm |  | 0 mm | 
7 | CCCCCCCC/C=C\CCCCCCCCNCCCNC(=O)[C@H](O)[C@@H](O)[C@H](O[C@@H]1O[C@H](CO)[C@H](O)[C@H](O)[C@H]1O)[C@H](O)CO [Oleylaminopropyl D-Lactobionamide, oleylaminopropyl D-lactobionamide] |  |  | < 0 °C |  | 
8 | CCCCCCCCCNC(=O)[C@H](O)[C@@H](O)[C@H](O[C@@H]1O[C@H](CO)[C@H](O)[C@H](O)[C@H]1O)[C@H](O)CO [C9 D-Lactobionamide, nonyl D-lactobionamide] |  | 0 mm | 42 °C | 0 mm | 
9 | CCCCCCCCCCCCCCCCCCNC(=O)[C@H](O)[C@@H](O)[C@H](O)[C@H](O)CO [C18 D-Gluconamide] | > 100 °C |  |  |  | Insoluble
10 | CCCCCCCCCCCCNC(=O)C(O)C(O)C(O)C(O)C(O)C(O)CO [C12 D-Glucooctonamide] | < 86 °C |  |  |  | 
11 | CCCCCCCCCCCCCCOCCCNC(=O)[C@H](O)[C@@H](O)[C@H](O[C@@H]1O[C@H](CO)[C@H](O)[C@H](O)[C@H]1O)[C@H](O)CO [C14 Oxypropyl D-Lactobionamide, tetradecyloxypropyl D-lactobionamide] |  |  | < 0 °C |  | 
12 | cocoaminopropyl D-lactobionamide |  | 171 mm | < 0 °C | 168 mm | 
13 | dodecyl to pentadecyloxypropylaminopropyl D-lactobionamide |  | 173 mm | < 0 °C | 169 mm | 
14 | CCCCCCCCCCCCCCCCCCNC(=O)[C@H](O)[C@@H](O)[C@H](O[C@@H]1O[C@H](CO)[C@H](O)[C@H](O)[C@H]1O)[C@H](O)CO [C18 D-Lactobionamide] |  |  | 82 °C |  | 
15 | CCCCCCCCCCCCCCCNC(=O)[C@H](O)[C@@H](O)[C@H](O[C@@H]1O[C@H](CO)[C@H](O)[C@H](O)[C@H]1O)[C@H](O)CO [C15 D-Lactobionamide] |  |  | 84 °C |  | 
16 | CCCCCCCCCCCCOCCCNC(=O)[C@H](O)[C@@H](O)[C@H](O[C@H]1O[C@H](CO)[C@@H](O)[C@H](O)[C@H]1O)[C@H](O)CO [C12 Oxypropyl D-Maltobionamide, dodecyloxypropyl D-maltobionamide] |  |  | < 0 °C |  | 
17 | CCCCCCCCCCCCNC(=O)[C@@H](O)[C@H](O)[C@@H](O)[C@@H](O)CO [C12 L-Gluconamide] | 91 °C |  |  |  | 

Results, then the compound that gave them:

Row | Krafft Point (0.1%) [1] | Foam Height Initial [2] | Krafft Point (1.0%) [1] | Foam Height Final [2] | Solubility [2] | Compound
18 | < 0 °C | 180 mm |  |  |  | dodecyl to pentadecyloxypropylaminopropyl D-gluconamide
19 | < 0 °C |  |  |  |  | CCCCCCCCCCCCOCCOCCOC(=O)CNC(=O)[C@H](O)[C@@H](O)[C@H](O)[C@H](O)CO [N-D-Gluconyl C12 Di(oxyethyl) Glycinate, N-D-Gluconyl Dodecyldi(oxyethyl) Glycinate]
20 |  |  | 18 °C | 59 mm |  | CCCCCCCCCCCCCCNC(=O)[C@H](O)[C@@H](O)[C@H](O[C@@H]1O[C@H](CO)[C@H](O)[C@H](O)[C@H]1O)[C@H](O)CO [C14 D-Lactobionamide]
21 | 53 °C |  |  |  |  | CCCCCCCCCCCCOC(=O)C(C)NC(=O)[C@H](O)[C@@H](O)[C@H](O)[C@H](O)CO (mixture of isomers) [N-D-Gluconyl C12 DL-Alaninate, N-D-Gluconyl Dodecyl DL-Alaninate]
22 | > 100 °C |  |  |  | Insoluble | CCCCCCCCCCCCNC(=O)[C@H](O)[C@@H](O)[C@@H](O)[C@H](O)CO [C12 D-Galactonamide]
23 |  | 0 mm | 61 °C | 0 mm |  | CCCCCCCCCCCNC(=O)[C@H](O)[C@@H](O)[C@H](O[C@@H]1O[C@H](CO)[C@H](O)[C@H](O)[C@H]1O)[C@H](O)CO [C11 D-Lactobionamide]
24 | < 0 °C |  |  | 84 mm |  | CCCCCCCC/C=C\CCCCCCCCNCCCNC(=O)[C@H](O)[C@@H](O)[C@H](O)[C@H](O)CO [Oleylaminopropyl D-Gluconamide, oleylaminopropyl D-gluconamide]
25 | 87 °C |  |  |  |  | CCCCCCCCCCCNC(=O)[C@H](O)[C@@H](O)[C@H](O)[C@H](O)CO [C11 D-Gluconamide]
26 | 54 °C |  |  |  |  | CCCCCCCCCCCCNC(=O)[C@H](O)[C@H](O)[C@H](O)CO [C12 Ribonamide, dodecyl D-ribonamide]
27 | 73 °C |  |  | 80 mm |  | CCCCCCCCCCCCOCCCNC(=O)[C@H](O)[C@H](O)[C@@H](O)[C@H](O)[C@H](O)CO [C12 Oxypropyl D-Glucoheptonamide]
28 | 63 °C |  |  |  |  | CCCCCCCCCCCC(=O)OCCNC(=O)[C@H](O)[C@@H](O)[C@H](O)[C@H](O)CO [N-D-Gluconyl C12 Ester of Ethanolamine, N-D-gluconyl dodecyl ester of ethanolamine]
29 | 91 °C |  |  |  |  | CCCCCCCCCCCCNC(=O)[C@H](O)[C@H](O)[C@@H](O)[C@H](O)[C@H](O)CO [C12 D-Glucoheptonamide]
30 | 63 °C |  |  |  |  | CCCCCCCCCCCCOC(=O)CNC(=O)[C@H](O)[C@@H](O)[C@H](O)[C@H](O)CO [N-D-Gluconyl C12 Glycinate, N-D-gluconyl dodecyl glycinate]
31 | 53 °C |  |  |  |  | CCCCCCCCCCCCCCOCCCNC(=O)[C@H](O)[C@@H](O)[C@H](O)[C@H](O)CO [C14 Oxypropyl D-Gluconamide]
32 | 10 °C | 217 mm |  | 200 mm |  | octyl/decyloxypropyl D-ribonamide [C8 /C10 Oxypropyl D-Ribonamide]
33 | < 0 °C | 0 mm |  | 0 mm |  | CCCCCCCNC(=O)[C@H](O)[C@@H](O)[C@H](O)[C@H](O)CO [C7 D-Gluconamide]
34 | > 100 °C |  |  |  | Insoluble | CCCCCCCCCCCCNC(=O)[C@H](O)[C@H](O)[C@@H](O)[C@@H](O)[C@H](O)CO [C12 D-Glycero-L-Mannoheptonamide]
35 | 58 °C | 200 mm |  | 110 mm |  | dodecyl to pentadecyloxypropyl D-gluconamide [C12 -C15 Oxypropyl D-Gluconamide]
36 |  |  | 46 °C | 140 mm |  | CCCCCCCCCCCCCCNC(=O)[C@H](O)[C@@H](O)[C@H](O[C@H]1O[C@H](CO)[C@@H](O)[C@H](O)[C@H]1O)[C@H](O)CO [C14 D-Maltobionamide]
37 | > 100 °C |  |  |  | Insoluble | CCCCCCCCCCCCNC(=O)[C@H](O)[C@H](O)[C@@H](O)[C@@H](O)CO [C12 L-Mannonamide]
38 | > 100 °C |  |  |  | Insoluble | CCCCCCCCCCCCCCCCNC(=O)[C@H](O)[C@@H](O)[C@H](O)[C@H](O)CO [C16 D-Gluconamide]
39 |  |  | 70 °C | 78 mm |  | CCCCCCCCCCCCCNC(=O)[C@H](O)[C@@H](O)[C@H](O[C@@H]1O[C@H](CO)[C@H](O)[C@H](O)[C@H]1O)[C@H](O)CO [C13 D-Lactobionamide]
40 |  | 95 mm | 64 °C | 95 mm |  | CCCCCCCCCCCCCCCCNC(=O)[C@H](O)[C@@H](O)[C@H](O[C@@H]1O[C@H](CO)[C@H](O)[C@H](O)[C@H]1O)[C@H](O)CO [C16 D-Lactobionamide]
41 | > 100 °C |  |  |  | Insoluble | CCCCCCCCCCCCNC(=O)[C@@H](O)[C@H](O)[C@H](O)[C@@H](O)CO [C12 L-Galactonamide]
42 |  |  | 38 °C | 20 mm |  | CCCCCCCCCCCCNC(=O)[C@H](O)[C@@H](O)[C@H](O[C@@H]1O[C@H](CO)[C@H](O)[C@H](O)[C@H]1O)[C@H](O)CO [C12 D-Lactobionamide]
